pEC50: −log10 of the molar value.
Assays:
[1] = target: T1, Full-length phosphorylated PDK1 (Homo sapiens, UniProt O15530); assay: Fluorescence polarization PIF-tide binding assay; conditions: PDK1 saturating amounts of compound, FIG. 13C
T1 sequence (O15530 1-556): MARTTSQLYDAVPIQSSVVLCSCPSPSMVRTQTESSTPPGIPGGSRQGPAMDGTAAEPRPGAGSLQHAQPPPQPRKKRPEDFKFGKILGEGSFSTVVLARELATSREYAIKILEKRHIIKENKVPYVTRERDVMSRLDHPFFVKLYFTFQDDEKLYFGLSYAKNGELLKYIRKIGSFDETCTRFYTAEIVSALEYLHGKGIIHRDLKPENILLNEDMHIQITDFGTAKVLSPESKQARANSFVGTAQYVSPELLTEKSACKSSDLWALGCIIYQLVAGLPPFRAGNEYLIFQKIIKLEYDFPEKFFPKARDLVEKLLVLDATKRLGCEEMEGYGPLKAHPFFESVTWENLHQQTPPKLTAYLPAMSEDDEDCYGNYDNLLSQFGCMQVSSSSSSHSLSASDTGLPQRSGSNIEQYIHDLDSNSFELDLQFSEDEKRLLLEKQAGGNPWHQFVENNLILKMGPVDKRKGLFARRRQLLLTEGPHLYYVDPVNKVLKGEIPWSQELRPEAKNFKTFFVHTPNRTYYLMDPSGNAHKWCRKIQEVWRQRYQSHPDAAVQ

[2] = test system: panel of 270 different human kinases; assay: Kinase selectivity panel (Upstate/Millipore); type: biochemical; conditions: 10 μM, panel of 270 kinases
Protocol: The selectivity of Compound 1 and Compound 2 was evaluated in a panel of 270 different human kinases offered by Upstate (now Millipore).

[3] = test system: MOLM-16; assay: MTS cell proliferation assay, MOLM-16; type: cell-based; conditions: Homo sapiens, MOLM16; MOLM-16, 72 hr
Protocol: Cell proliferation was measured using the CellTiter 96 Aqueous Non-Radioactive Cell Proliferation Assay (Promega). The CellTiter 96® AQueous Assay is composed of solutions of a tetrazolium compound [3-(4,5-dimethylthiazol-2-yl)-5-(3-carboxymethoxyphenyl)-2-(4-sulfophenyl)-2H-tetrazolium, inner salt; MTS] and an electron coupling reagent (phenazine methosulfate) PMS. MTS is bioreduced by cells into a formazan product that is soluble in tissue culture medium. The absorbance of the formazan product at 490 nm can be measured directly from assay plates without additional processing. The quantity of formazan product as measured by the amount of 490 nm absorbance is directly proportional to the number of living cells in culture. Cells were seeded into 96-well or 384-well clear plates in a volume of 200 μL (96-well) or 50 μL (384-well) at optimized densities ranging from 1,000 to 40,000 cells per well for 96-well plates or 1,200 to 25,000 cells per well for 384-well plates depending on cell-line. After 4-6 hr recovery, serially diluted compounds in DMSO were added to the cells using (0.1% v/v final DMSO concentration). Cells were then grown at 37° C. in a humidified incubator with 5% CO2 for 72 hr. A 20:1 [3-(4,5-dimethylthiazol-2-yl)-5-(3-carboxymethoxyphenyl)-2-(4-sulfophenyl)-2H-tetrazolium](MTS):phenazine methosulfate (PMS) solution in DPBS was made immediately before use, added to each well, and cells were incubated for 1.5 hr at 37° C. The absorbance at 490 nm was then measured using a platereader. Absorbance values were normalized as percent of control (cells incubated in the presence of 0.1% v/v DMSO). Sigmoidal dose-response curves were plotted using log(inhibitor) vs. response—Variable slope (four parameters) model with a top value constrained to 100% (GraphPad Prism version 6.00 for Windows, GraphPad Software, La Jolla California USA). […] Curves for compounds that reached a plateau were matched exactly to the measurement points. […]

[4] = test system: U-2932; assay: MTS cell proliferation assay, U-2932; type: cell-based; conditions: Homo sapiens, U2932; U-2932, 72 hr
Protocol: Cell proliferation was measured using the CellTiter 96 Aqueous Non-Radioactive Cell Proliferation Assay (Promega). The CellTiter 96® AQueous Assay is composed of solutions of a tetrazolium compound [3-(4,5-dimethylthiazol-2-yl)-5-(3-carboxymethoxyphenyl)-2-(4-sulfophenyl)-2H-tetrazolium, inner salt; MTS] and an electron coupling reagent (phenazine methosulfate) PMS. MTS is bioreduced by cells into a formazan product that is soluble in tissue culture medium. The absorbance of the formazan product at 490 nm can be measured directly from assay plates without additional processing. The quantity of formazan product as measured by the amount of 490 nm absorbance is directly proportional to the number of living cells in culture. Cells were seeded into 96-well or 384-well clear plates in a volume of 200 μL (96-well) or 50 μL (384-well) at optimized densities ranging from 1,000 to 40,000 cells per well for 96-well plates or 1,200 to 25,000 cells per well for 384-well plates depending on cell-line. After 4-6 hr recovery, serially diluted compounds in DMSO were added to the cells using (0.1% v/v final DMSO concentration). Cells were then grown at 37° C. in a humidified incubator with 5% CO2 for 72 hr. A 20:1 [3-(4,5-dimethylthiazol-2-yl)-5-(3-carboxymethoxyphenyl)-2-(4-sulfophenyl)-2H-tetrazolium](MTS):phenazine methosulfate (PMS) solution in DPBS was made immediately before use, added to each well, and cells were incubated for 1.5 hr at 37° C. The absorbance at 490 nm was then measured using a platereader. Absorbance values were normalized as percent of control (cells incubated in the presence of 0.1% v/v DMSO). Sigmoidal dose-response curves were plotted using log(inhibitor) vs. response—Variable slope (four parameters) model with a top value constrained to 100% (GraphPad Prism version 6.00 for Windows, GraphPad Software, La Jolla California USA). […] Curves for compounds that reached a plateau were matched exactly to the measurement points. […] To determine potential of compounds of the invention to affect viability of hematological cancers, cell lines representing various tumor types were selected and tested. Human cell lines tested were: MOLM-13 (acute myeloid leukemia (AML)), MV4-11 (AML), U-2932 (ABC-diffuse large B cell lymphoma), U-937 (histiocytic lymphoma), U-266 (multiple myeloma), RPMI-8226 (multiple myeloma), CMK (megakaryoblastic cell line), SU-DHL-4 (GCB-diffuse large B cell lymphoma), KG1 (AML), Mec-1 (chronic B-cell leukemia), MOLM-16 (AML), Jeko (B-cell lymphoma), WSU-DLCL2 (B-cell lymphoma), JJN3 (plasma cell leukemia), SU-DHL-6 (GCB-diffuse large B cell lymphoma), and Z-138 (mantle cell lymphoma). In addition, two murine cell lines were tested: A20 […].

[5] = test system: P-PDK1; assay: Western blot, PDK1 phosphorylation in C1498 cells; type: cell-based, murine; conditions: C1498, 30-100 nM range
Protocol: For phosphoprotein analyses, cells were seeded into 10 cm petri dishes (10×10^6 cells/dish) in media supplemented with 10% FBS and penicillin/streptomycin. After cells recovered for 1 hr at 37° C., compounds were added in DMSO (0.1% final) and incubated for 4 or 24 hr at 37° C. Cells were then harvested by centrifugation and washed with cold PBS. Cell pellets were resuspended in cell extraction buffer (Invitrogen) supplemented with 2×Halt™ protease and phosphatase inhibitor cocktail (Thermo Scientific), 2 mM sodium orthovanadate, 10 mM EDTA and 4 mM PMSF. Samples were lysed by sonication and incubated on ice for 30 min. Cell debris was removed by centrifugation and protein concentrations were determined using the BCA Protein Assay Kit (Pierce). The clarified lysate was diluted in LDS sample buffer with reducing agent (Life Technologies). […] Gels were run at 110 V and proteins were transferred to a PVDF membrane. Membranes were blocked in TBS blocking buffer (Li-Cor Biosciences) for 1 hr. Primary antibodies (Cell Signaling, Sant Cruz Biotechnology) were added (1:1,000 dilution) in blocking buffer with 0.1% Tween-20 and 1:20,000 dilution of β-actin antibody and incubated for 14 hr at 4° C. […] Bands were quantitated using ImageJ.

SMILES | PIF-tide binding to PDK1 (fluorescence polarization, words) [1] | number of kinases with inhibition greater than or equal to 90% (including PDK1) [2] | pEC50 [3] | pEC50 [4] | P-PDK1 inhibition [5]
C[C@H](NC(=O)c1nc(C#N)cnc1NCc1ccc(-c2cnc3[nH]nc(N)c3n2)cc1)c1ccc(F)c(F)c1 [Compound 1, 3-[4-(3-Amino-1H-pyrazolo[3,4-b]pyrazin-5-yl)-benzylamino]-6-cyano-pyrazine-2-carboxylic acid [1-(3,4-difluoro-phenyl)-ethyl]-amide] | significant inhibition of PIF-tide binding | 18 | 6.61 | 6.97 | 
CNc1n[nH]c2ncc(-c3ccc(CNc4ncc(C#N)nc4C(=O)N[C@@H](C)c4ccc(F)c(F)c4)cc3)cc12 [Compound 2, 6-Cyano-3-[4-(3-methylamino-1H-pyrazolo[3,4-b]pyridin-5-yl)-benzylamino]-pyrazine-2-carboxylic acid [1-(3,4-difluoro-phenyl)-ethyl]-amide] | significant inhibition of PIF-tide binding | 20 | 6.64 | 7.25 | ~80%

Reference: US20240207258A1, “HETEROCYCLIC PDK1 INHIBITORS FOR USE TO TREAT CANCER” (Viracta Therapeutics, Inc., priority 2015, published 2024)
